Assay [1] has as its target T1, complex I (CI), NADH-binding site (Bos taurus, UniProt P25708).
T1 construct: gene NDUFV1; native 45-subunit complex from heart mitochondria, purified in LMNG, in proteoliposomes; with NADH dehydrogenase [ubiquinone] flavoprotein 2, mitochondrial; NADH-ubiquinone oxidoreductase 75 kDa subunit, mitochondrial; NADH dehydrogenase [ubiquinone] iron-sulfur protein 2, mitochondrial; NADH dehydrogenase [ubiquinone] iron-sulfur protein 7, mitochondrial
The assay can be described thus: NADH:APAD+ oxidoreduction, absorbance. Type of assay: biochemical. As to conditions: 500 µM APAD+, 100 µM NADH, 500 nM piericidin A; pH 7.5, 32 °C.

Assay [2] deals with T1, complex I (CI), NADH-binding site. The assay can be described thus: NADH oxidation by CI-PLs with AOX, absorbance. Type of assay: biochemical. Particulars: 200 µM NADH, ubiquinone-10, AOX; pH 7.5, 32 °C.
Assay [3] deals with T2, complex I (CI), ubiquinone-10-binding site (Bos taurus, UniProt P03887+P17694+P42026).
T2 construct: gene NDUFS2; native 45-subunit complex from heart mitochondria, purified in LMNG, reconstituted in proteoliposomes (CI-PLs); natural variant NDUFS2-129 modelled as Arg; with NADH-ubiquinone oxidoreductase chain 3; NADH-ubiquinone oxidoreductase chain 6; NADH dehydrogenase [ubiquinone]; 1 alpha subcomplex subunit 9, mitochondrial
T2 sequence (P17694 34-463): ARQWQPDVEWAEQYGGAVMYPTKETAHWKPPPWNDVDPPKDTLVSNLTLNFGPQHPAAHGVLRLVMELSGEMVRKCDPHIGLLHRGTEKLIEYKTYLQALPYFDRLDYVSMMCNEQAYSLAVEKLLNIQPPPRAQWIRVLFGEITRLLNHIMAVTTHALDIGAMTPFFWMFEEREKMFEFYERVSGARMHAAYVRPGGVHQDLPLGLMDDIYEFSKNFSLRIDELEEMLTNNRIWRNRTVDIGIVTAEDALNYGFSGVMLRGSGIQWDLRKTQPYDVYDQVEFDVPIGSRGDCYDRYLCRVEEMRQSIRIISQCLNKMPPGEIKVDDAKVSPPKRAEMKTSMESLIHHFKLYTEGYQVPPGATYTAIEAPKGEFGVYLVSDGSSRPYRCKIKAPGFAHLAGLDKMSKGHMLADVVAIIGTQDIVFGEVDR
T2 sequence (P03887 whole entry): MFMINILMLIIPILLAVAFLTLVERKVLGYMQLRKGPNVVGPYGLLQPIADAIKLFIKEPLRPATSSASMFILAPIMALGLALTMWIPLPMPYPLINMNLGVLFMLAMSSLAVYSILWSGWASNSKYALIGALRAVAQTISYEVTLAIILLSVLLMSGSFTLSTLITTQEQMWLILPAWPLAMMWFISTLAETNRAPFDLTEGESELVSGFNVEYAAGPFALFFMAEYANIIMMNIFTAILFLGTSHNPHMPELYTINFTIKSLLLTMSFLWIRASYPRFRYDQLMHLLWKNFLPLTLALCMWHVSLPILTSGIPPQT
T2 sequence (P42026 38-216): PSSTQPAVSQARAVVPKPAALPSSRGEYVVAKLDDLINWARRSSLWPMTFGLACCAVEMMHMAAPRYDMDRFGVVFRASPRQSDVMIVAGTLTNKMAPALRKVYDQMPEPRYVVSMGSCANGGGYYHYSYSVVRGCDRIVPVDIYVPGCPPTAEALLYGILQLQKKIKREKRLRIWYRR
Nature of the assay: cryoEM structure in proteoliposomes. As to conditions: CI-out-closed state, 2.5 Å; native substrate, deep-bound.

T1 sequence (P25708 21-464, one chain of several): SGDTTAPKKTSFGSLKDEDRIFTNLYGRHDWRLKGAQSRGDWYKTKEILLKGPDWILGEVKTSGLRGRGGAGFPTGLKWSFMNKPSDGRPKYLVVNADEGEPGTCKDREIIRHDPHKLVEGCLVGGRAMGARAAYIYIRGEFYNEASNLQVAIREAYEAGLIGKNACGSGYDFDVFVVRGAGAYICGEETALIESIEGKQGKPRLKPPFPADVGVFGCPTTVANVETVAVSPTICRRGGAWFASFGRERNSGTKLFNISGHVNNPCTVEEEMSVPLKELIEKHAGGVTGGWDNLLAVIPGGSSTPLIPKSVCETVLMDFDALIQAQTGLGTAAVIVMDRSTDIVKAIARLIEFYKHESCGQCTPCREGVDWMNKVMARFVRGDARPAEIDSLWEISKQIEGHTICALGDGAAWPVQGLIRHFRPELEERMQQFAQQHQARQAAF

Consider `CC(=O)c1ccc[n+]([C@@H]2O[C@H](COP(=O)([O-])OP(=O)(O)OC[C@H]3O[C@@H](n4cnc5c(N)ncnc54)[C@H](O)[C@@H]3O)[C@@H](O)[C@H]2O)c1` [APAD^+], for which the “NADH:APAD+ oxidoreduction, absorbance” value in assay [1] is “Complex I concentration in CI-PLs was determined using the NADH:APAD^+ oxidoreduction reaction”.

Take `NC(=O)C1=CN([C@@H]2O[C@H](COP(=O)(O)OP(=O)(O)OC[C@H]3O[C@@H](n4cnc5c(N)ncnc54)[C@H](O)[C@@H]3O)[C@@H](O)[C@H]2O)C=CC1` [NADH]: the “NADH oxidation by CI-PLs with AOX, absorbance” value in assay [2] was “NADH:O2 oxidoreduction rates were measured as the rates of NADH oxidation”.

`COC1=C(OC)C(=O)C(C/C=C(\C)CC/C=C(\C)CC/C=C(\C)CC/C=C(\C)CC/C=C(\C)CC/C=C(\C)CC/C=C(\C)CC/C=C(\C)CC/C=C(\C)CCC=C(C)C)=C(C)C1=O` [ubiquinone-10]: the “cryoEM structure in proteoliposomes” value in assay [3] is given as “The CI-in/out-closed structures exhibit well-ordered density for ubiquinone-10, inserted fully into its active site”.

The values above are taken from publication doi:10.1101/2023.12.14.571638v1, “Structural basis of a regulatory switch in mammalian complex I” (biorxiv, 2023).
